Reference: patent publication EP4273147A1, “SUBSTITUTED SPIROLACTAMS, SALTS THEREOF AND THEIR USE AS HERBICIDALLY ACTIVE SUBSTANCES” (Bayer Aktiengesellschaft, priority 2022, dated 2023)

Key:
[1] = test system: ABUTH; test: Herbicidal pre-emergence action (Table A1); type: in vivo, Abutilon theophrasti; details: application rate 1280 g/ha; visual grading after ca. 3 weeks vs untreated controls (100% = plants have died off, 0% = as control plants)
Summary of the method: (§1)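 Seeds covered with soil after sowing in sandy loam; every pot carried one monocotyledonous and one dicotyledonous weed species as a double sowing.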

[2] = test system: ECHCG; test: Herbicidal pre-emergence action (Table A2); type: in vivo, Echinochloa crus-galli; details: application rate 320 g/ha; visual grading after ca. 3 weeks
Summary of the method: as §1

[3] = test system: LOLRI; test: Herbicidal pre-emergence action (Table A3); type: in vivo, Lolium rigidum; details: application rate 320 g/ha; visual grading after ca. 3 weeks
Summary of the method: as §1

[4] = test system: MATIN; test: Herbicidal pre-emergence action (Table A4); type: in vivo, Matricaria inodora; details: visual grading after ca. 3 weeks
Summary of the method: as §1

[5] = test system: SETVI; test: Herbicidal pre-emergence action (Table A5); type: in vivo, Setaria viridis; details: visual grading after ca. 3 weeks
Summary of the method: as §1

[6] = test system: STEME; test: Herbicidal pre-emergence action (Table A6); type: in vivo, Stellaria media; details: visual grading after ca. 3 weeks
Summary of the method: as §1

[7] = test system: POAAN; test: Herbicidal pre-emergence action (Table A7); type: in vivo, Poa annua; details: application rate 320 g/ha; visual grading after ca. 3 weeks
Summary of the method: as §1

[8] = test system: ALOMY; test: Herbicidal pre-emergence action (Table A9); type: in vivo, Alopecurus myosuroides; details: visual grading after ca. 3 weeks
Summary of the method: as §1

[9] = test system: KCHSC; test: Herbicidal pre-emergence action (Table A10); type: in vivo, Kochia scoparia; details: application rate 1280 g/ha; visual grading after ca. 3 weeks
Summary of the method: as §1

[10] = test system: VERPE; test: Herbicidal pre-emergence action (Table A11); type: in vivo, Veronica persica; details: visual grading after ca. 3 weeks
Summary of the method: as §1

[11] = test system: ABUTH; test: Herbicidal post-emergence action (Table B1); type: in vivo, Abutilon theophrasti; details: application rate 1280 g/ha; treated at one-leaf stage; rated visually after about 3 weeks vs untreated controls (100% = plants have died, 0% = like control plants)
Summary of the method: (§2)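 Greenhouse post-emergence screen on potted weeds in sandy loam, treatment at one-leaf stage, visual % control scored ~3 weeks later against untreated plants.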

[12] = test system: ALOMY; test: Herbicidal post-emergence action (Table B2); type: in vivo, Alopecurus myosuroides; details: application rate 1280 g/ha; rated visually after about 3 weeks
Summary of the method: as §2

[13] = test system: ECHCG; test: Herbicidal post-emergence action (Table B3); type: in vivo, Echinochloa crus-galli; details: rated visually after about 3 weeks
Summary of the method: as §2

[14] = test system: MATIN; test: Herbicidal post-emergence action (Table B6); type: in vivo, Matricaria inodora; details: application rate 320 g/ha; rated visually after about 3 weeks
Summary of the method: as §2

[15] = test system: POAAN; test: Herbicidal post-emergence action (Table B7); type: in vivo, Poa annua
Summary of the method: as §2

[16] = test system: SETVI; test: Herbicidal post-emergence action (Table B8); type: in vivo, Setaria viridis; details: application rate 1280 g/ha
Summary of the method: as §2

[17] = test system: STEME; test: Herbicidal post-emergence action (Table B9); type: in vivo, Stellaria media; details: application rate 1280 g/ha
Summary of the method: as §2

[18] = test system: VERPE; test: Herbicidal post-emergence action (Table B10); type: in vivo, Veronica persica; details: application rate 320 g/ha
Summary of the method: as §2

[19] = test system: ALOMY; test: Herbicidal pre-emergence action, section C (Table C2); type: in vivo, Alopecurus myosuroides; details: application rate 320 g/ha; visual grading after ca. 3 weeks
[20] = test system: ECHCG; test: Herbicidal pre-emergence action, section C (Table C6); type: in vivo, Echinochloa crus-galli; details: application rate 80 g/ha; visual grading after ca. 3 weeks
[21] = test system: LOLRI; test: Herbicidal pre-emergence action, section C (Table C7); type: in vivo, Lolium rigidum; details: application rate 320 g/ha; visual grading after ca. 3 weeks
[22] = test system: MATIN; test: Herbicidal pre-emergence action, section C (Table C8); type: in vivo, Matricaria inodora; details: application rate 320 g/ha; visual grading after ca. 3 weeks
Excerpt: (§4) Seeds of mono- and dicotyledonous weed plants and crop plants were sown, in plastic or organic planting pots, in sandy loam and covered with soil. The compounds according to the invention, formulated in the form of wettable powders (WP) or as emulsifiable concentrates (EC), were applied to the surface of the covering soil as aqueous suspension or emulsion, with the addition of 0.5% of an additive, at an application rate of 600 1 of water/ha (converted). Following treatment, the pots were placed in a greenhouse and kept under optimum growth conditions for the test plants.

[23] = test system: SETVI; test: Herbicidal pre-emergence action, section C (Table C10); type: in vivo, Setaria viridis; details: visual grading after ca. 3 weeks
[24] = test system: VIOTR; test: Herbicidal pre-emergence action, section C (Table C12); type: in vivo, Viola tricolor; details: visual grading after ca. 3 weeks
[25] = test system: ZEAMX; test: Pre-emergence effects on crop plants (Table D1); type: in vivo, Zea mays; details: crop plant; application rate 80 g/ha; visual grading after ca. 3 weeks
[26] = test system: GLXMA; test: Pre-emergence effects on crop plants (Table D4); type: in vivo, Glycine max; details: crop plant; application rate 80 g/ha; visual grading after ca. 3 weeks
[27] = test system: BRSNW; test: Pre-emergence effects on crop plants (Table D5); type: in vivo, Brassica napus; details: crop plant; application rate 80 g/ha; visual grading after ca. 3 weeks
[28] = test system: ALOMY; test: Herbicidal post-emergence action, section E (Table E2); type: in vivo, Alopecurus myosuroides; details: application rate 320 g/ha; assessed visually after ca. 3 weeks
Excerpt: (§3) 2 to 3 weeks after sowing, the test plants were sprayed in the single-leaf stage.

[29] = test system: ECHCG; test: Herbicidal post-emergence action, section E (Table E5); type: in vivo, Echinochloa crus-galli; details: application rate 320 g/ha; assessed visually after ca. 3 weeks
Excerpt: as §3

[30] = test system: LOLRI; test: Herbicidal post-emergence action, section E (Table E6); type: in vivo, Lolium rigidum; details: application rate 320 g/ha; assessed visually after ca. 3 weeks
Excerpt: as §3

[31] = test system: SETVI; test: Herbicidal post-emergence action, section E (Table E8); type: in vivo, Setaria viridis; details: application rate 320 g/ha; assessed visually after ca. 3 weeks
Excerpt: as §3

[32] = test system: VERPE; test: Herbicidal post-emergence action, section E (Table E9); type: in vivo, Veronica persica; details: application rate 320 g/ha; assessed visually after ca. 3 weeks
Excerpt: as §3

[33] = test system: ZEAMX; test: Post-emergence effects on crop plants (Table F1); type: in vivo, Zea mays; details: crop plant ZEAMX
Excerpt: as §3

[34] = test system: TRZAS; test: Post-emergence effects on crop plants (Table F2); type: in vivo, Triticum aestivum; details: crop plant TRZAS
Excerpt: as §3

[35] = test system: ORYZA; test: Post-emergence effects on crop plants (Table F3); type: in vivo, Oryza sativa; details: crop plant ORYZA
Excerpt: as §3

[36] = test system: GLXMA; test: Post-emergence effects on crop plants (Table F4); type: in vivo, Glycine max; details: application rate 80 g/ha, crop plant GLXMA
Excerpt: as §3

[37] = test system: BRSNW; test: Post-emergence effects on crop plants (Table F5); type: in vivo, Brassica napus; details: application rate 80 g/ha, crop plant BRSNW
Excerpt: as §3

[38] = test system: ORYZA; test: Pre-emergence effects on crop plants (Table D3); details: crop plant, visual grading after ca. 3 weeks
Excerpt: Seeds of mono- and dicotyledonous weed plants and crop plants were sown, in plastic or organic planting pots, in sandy loam and covered with soil. The compounds according to the invention, formulated in the form of wettable powders (WP) or as emulsifiable concentrates (EC), were applied to the surface of the covering soil as aqueous suspension or emulsion, with the addition of 0.5% of an additive, at an application rate of 600 1 of water/ha (converted).
Following treatment, the pots were placed in a greenhouse and kept under optimum growth conditions for the test plants.

[39] = test system: DIGSA; test: Herbicidal pre-emergence action (Table A12); type: in vivo, Digitaria sanguinalis; details: application rate 320 g/ha; visual grading after ca. 3 weeks
Summary of the method: as §1

[40] = test system: ABUTH; test: Herbicidal pre-emergence action, section C (Table C1); type: in vivo, Abutilon theophrasti; details: application rate 320 g/ha; visual grading after ca. 3 weeks
Excerpt: as §4

[41] = test system: AVEFA; test: Herbicidal pre-emergence action, section C (Table C4); type: in vivo, Avena fatua; details: application rate 320 g/ha; visual grading after ca. 3 weeks
Excerpt: as §4

[42] = test system: DIGSA; test: Herbicidal pre-emergence action, section C (Table C5); type: in vivo, Digitaria sanguinalis; details: application rate 320 g/ha; visual grading after ca. 3 weeks
Excerpt: as §4

[43] = test system: VERPE; test: Herbicidal pre-emergence action, section C (Table C11); type: in vivo, Veronica persica; details: application rate 320 g/ha; visual grading after ca. 3 weeks
[44] = test system: TRZAS; test: Pre-emergence effects on crop plants (Table D2); type: in vivo, Triticum aestivum; details: crop plant; application rate 80 g/ha; visual grading after ca. 3 weeks
[45] = test system: ABUTH; test: Herbicidal post-emergence action, section E (Table E1); type: in vivo, Abutilon theophrasti; details: application rate 320 g/ha; assessed visually after ca. 3 weeks
Excerpt: as §3

[46] = test system: VIOTR; test: Herbicidal post-emergence action, section E (Table E10); type: in vivo, Viola tricolor; details: application rate 320 g/ha; assessed visually after ca. 3 weeks
Excerpt: as §3

For `O=C1N(Cc2ccccc2F)CCCC12CCCN(Cc1cccc(F)c1F)C2=O` (racemic) [I-003], the “pre-emergence activity against ABUTH” value [1] was 90%, the “pre-emergence activity against ECHCG” value [2] was 100% and the “pre-emergence activity against LOLRI” value [3] was 100%. For the same compound, the “pre-emergence activity against MATIN” value ([4]; application rate 320 g/ha) was 90%, the “pre-emergence activity against SETVI” value ([5]; application rate 320 g/ha) was 100% and the “pre-emergence activity against STEME” value ([6]; application rate 320 g/ha) was 90%. The “pre-emergence activity against POAAN” value [7] was 100%, the “pre-emergence activity against ALOMY” value ([8]; application rate 320 g/ha) was 90% and the “pre-emergence activity against KCHSC” value [9] was 90%. The “pre-emergence activity against VERPE” value ([10]; application rate 320 g/ha) was 90%, the “post-emergence activity against ABUTH” value [11] was 90% and the “post-emergence activity against ALOMY” value [12] was 90%. The “post-emergence activity against ECHCG” value ([13]; application rate 320 g/ha) was 90%, the “post-emergence activity against MATIN” value [14] was 90% and the “post-emergence activity against POAAN” value ([15]; application rate 320 g/ha) was 100%. For the same compound, the “post-emergence activity against SETVI” value [16] was 90%, the “post-emergence activity against STEME” value [17] was 100% and the “post-emergence activity against VERPE” value [18] was 90%. For the same compound, the “pre-emergence activity against ALOMY” value [19] was 90%, the “pre-emergence activity against ECHCG” value [20] was 100% and the “pre-emergence activity against LOLRI” value [21] was 90%. The “pre-emergence activity against MATIN” value [22] was 90%, the “pre-emergence activity against SETVI” value ([23]; application rate 80 g/ha) was 100% and the “pre-emergence activity against VIOTR” value ([24]; application rate 320 g/ha) was 90%. For the same compound, the “pre-emergence activity against ZEAMX” value [25] was 10%, the “pre-emergence activity against GLXMA” value [26] was 10% and the “pre-emergence activity against BRSNW” value [27] was 10%. The “post-emergence activity against ALOMY” value [28] was 90%, the “post-emergence activity against ECHCG” value [29] was 80% and the “post-emergence activity against LOLRI” value [30] was 80%. The “post-emergence activity against SETVI” value [31] was 80%, the “post-emergence activity against VERPE” value [32] was 80% and the “post-emergence activity against ZEAMX” value ([33]; application rate 320 g/ha) was 20%. For the same compound, the “post-emergence activity against TRZAS” value ([34]; application rate 80 g/ha) was 0%, the “post-emergence activity against ORYZA” value ([35]; application rate 80 g/ha) was 20% and the “post-emergence activity against GLXMA” value [36] was 20%. The “post-emergence activity against BRSNW” value [37] was 20% and the “pre-emergence activity against ORYZA” value ([38]; application rate 80 g/ha) was 20%.

With `O=C1N(Cc2ccccc2Cl)CCCC12CCN(Cc1cccc(F)c1F)C2=O` (racemic) [I-035] the “pre-emergence activity against LOLRI” value [3] was 100%, the “pre-emergence activity against MATIN” value ([4]; application rate 1280 g/ha) was 90% and the “pre-emergence activity against SETVI” value ([5]; application rate 1280 g/ha) was 100%. The “pre-emergence activity against STEME” value ([6]; application rate 1280 g/ha) was 90%, the “pre-emergence activity against POAAN” value [7] was 100% and the “pre-emergence activity against ALOMY” value ([8]; application rate 1280 g/ha) was 90%. The “pre-emergence activity against KCHSC” value [9] was 90%, the “pre-emergence activity against VERPE” value ([10]; application rate 1280 g/ha) was 90% and the “pre-emergence activity against DIGSA” value [39] was 100%. For the same compound, the “post-emergence activity against ECHCG” value ([13]; application rate 1280 g/ha) was 90%, the “post-emergence activity against POAAN” value ([15]; application rate 1280 g/ha) was 90% and the “pre-emergence activity against ABUTH” value [40] was 80%. For the same compound, the “pre-emergence activity against ALOMY” value [19] was 80%, the “pre-emergence activity against AVEFA” value [41] was 100% and the “pre-emergence activity against DIGSA” value [42] was 100%. For the same compound, the “pre-emergence activity against ECHCG” value [20] was 100%, the “pre-emergence activity against LOLRI” value [21] was 90% and the “pre-emergence activity against SETVI” value ([23]; application rate 320 g/ha) was 100%. The “pre-emergence activity against VERPE” value [43] was 90%, the “pre-emergence activity against VIOTR” value ([24]; application rate 80 g/ha) was 90% and the “pre-emergence activity against ZEAMX” value [25] was 0%. For the same compound, the “pre-emergence activity against TRZAS” value [44] was 0%, the “pre-emergence activity against GLXMA” value [26] was 0% and the “post-emergence activity against ABUTH” value [45] was 90%. For the same compound, the “post-emergence activity against VERPE” value [32] was 80%, the “post-emergence activity against VIOTR” value [46] was 80% and the “post-emergence activity against ZEAMX” value ([33]; application rate 80 g/ha) was 0%. The “post-emergence activity against TRZAS” value ([34]; application rate 320 g/ha) was 0%, the “post-emergence activity against ORYZA” value ([35]; application rate 320 g/ha) was 0% and the “pre-emergence activity against ORYZA” value ([38]; application rate 320 g/ha) was 0%.
